Reference: US10788502B2, “Erythrocyte sedimentation inhibitor” (FUJIMORI KOGYO CO., LTD., priority 2014, dated 2020)

Assays:
[1] = tested on: erythrocytes in blood anticoagulated with sodium citrate; assay: Blood sedimentation of citrated blood left to stand in a glass tube or blood container; type: cell-based; conditions: 30 minutes
Protocol: (§1) A solution of DIDS (Tokyo Chemical Industry Co., Ltd.) in physiological saline was added to blood anticoagulated with sodium citrate to a final concentration of 0.15 mg/ml or 1.5 mg/ml, respectively. The resulting mixture was mixed, and placed in a glass tube having a diameter of 6 mm (FIG. 1) or a blood container for measurement of thrombus formation (FIG. 2), followed by being left to stand.
as §1, with “DNDS” for “DIDS”, “0.02 mg/ml, 0.1 mg/ml,” for “0.15 mg/ml”, “0.2” for “1.5”, “3),” for “1) or a blood container for measurement of thrombus formation (FIG. 2),”
A solution of DNDS (Tokyo Chemical Industry Co., Ltd.) in physiological saline was added to blood anticoagulated with sodium citrate to a final concentration of 0.5 mg/ml or 1.0 mg/ml, respectively. The resulting mixture was mixed, and placed in a glass tube having a diameter of 6 mm. The glass tube was then inclined at an angle of 30°, and left to stand (FIG. 4).

[2] = tested on: citrate blood (thrombus formation; blood coagulation capacity and platelet function); assay: Microchip capillary perfusion: pressure changes caused by formation of thrombi composed of fibrin and platelets; type: cell-based; conditions: for blood sedimentation: blood sample of the perfusion test; for thrombus formation (pressure pattern during perfusion): perfusion 10 μl/min for 30 minutes, collagen and tissue thromboplastin coated capillary
Protocol: The apparatus described in FIG. 12 of Patent Document 1 was used.
A capillary having a width of 300 μm, depth of 80 μm, and length of 1.5 cm formed on a microchip was coated with type I collagen (manufactured by Nitta Gelatin Inc.) and tissue thromboplastin (manufactured by Sysmex Corporation). The capillary was perfused with citrate blood supplemented with CTI (corn trypsin inhibitor) (final concentration, 50 μg/ml), calcium chloride (final concentration, 12 mM), and DIDS (final concentration, 0 or 1.5 mg/ml) or DNDS (final concentration, 0.3 mg/ml) fed from a blood container at a flow rate of 10 μl/min for 30 minutes, while changes in the pressure caused by formation of thrombi composed of fibrin and platelets were continuously measured.
FIG. 5 is a graph showing the pressure patterns during the perfusion with blood samples. The pressure reflects formation of thrombi composed of fibrin and activated platelets, and comprehensively reflects the blood coagulation capacity and the platelet function. […] B represents the pressure changes in the case of the blood sample supplemented with DIDS (1.5 mg/ml), and C represents the pressure changes in the case of the perfusion with the blood supplemented with DNDS (0.3 mg/ml).

Solubility in water = type: physicochemical

Structure (SMILES) | blood sedimentation ([1]; 0.15 mg/ml final concentration, 6 mm glass tube or blood container for measurement of thrombus formation) | blood sedimentation ([1]; 1.5 mg/ml final concentration, glass tube and container having an inclined bottom) | blood sedimentation ([2]; 1.5 mg/ml) | thrombus formation (pressure pattern during perfusion) ([2]; 1.5 mg/ml) | solubility in water (Solubility in water) | blood sedimentation relative to the control ([1]; 0.02 mg/ml final concentration, 6 mm glass tube) | blood sedimentation relative to the control ([1]; 0.1 mg/ml final concentration, 6 mm glass tube) | blood sedimentation ([1]; 0.2 mg/ml final concentration, 6 mm glass tube) | blood sedimentation relative to the control ([1]; 0.5 mg/ml final concentration, 6 mm glass tube inclined at an angle of 30°) | blood sedimentation relative to the control ([1]; 1.0 mg/ml final concentration, 6 mm glass tube inclined at an angle of 30°) | blood sedimentation ([2]; 0.3 mg/ml) | thrombus formation (pressure pattern during perfusion) ([2]; 0.3 mg/ml)
O=S(=O)(O)c1cc(N=C=S)ccc1C=Cc1ccc(N=C=S)cc1S(=O)(=O)O [DIDS, 4,4′-Diisothiocyanatostilbene-2,2′-disulfonic acid] | rather suppressed | completely suppressed | strongly suppresses blood sedimentation | does not affect thrombus formation | – | – | – | – | – | – | – | –
O=[N+]([O-])c1ccc(C=Cc2ccc([N+](=O)[O-])cc2S(=O)(=O)[O-])c(S(=O)(=O)[O-])c1.[Na+].[Na+] [DNDS, disodium 4,4′-dinitrostilbene-2,2′-disulfonate] | – | – | – | – | soluble in water | suppressed | suppressed | almost completely suppressed | suppressed | suppressed | strongly suppresses blood sedimentation | does not affect thrombus formation
